How the values were obtained:
[1] = system: Human peripheral blood mononuclear cells; assay: Human Concanavalin-A Proliferation Assay (Con HU Assay); type: cell-based; details: Homo sapiens, PBMC, concanavalin-A stimulated human PBMC; for inhibition at 10 µM / inhibition at 1 µM / inhibition at 100 µM: 72 h, 3 days, read-out: % Inhibition of proliferation (at concentrations of 1,10, or 100 μm); for inhibition at 10 µM: concentration 10 μm (in parentheses in the cell); for IC50: tritiated thymidine; for inhibition at 1 µM: concentration 1 μm (in parentheses in the cell); for inhibition at 100 µM: concentration 100 μm (in parentheses in the cell)
In short: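 Histopaque-isolated human PBMC (50,000/well) were pre-incubated 15 min with compounds, then stimulated with concanavalin-A at 2.5 μg/ml final for 3 days at 37 °C, 5% CO2. Proliferation measured by 6 h pulse with 0.5 μCi/well [3H]thymidine and beta counting.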

SMILES	melting point [°C]	inhibition at 10 µM [1] [%]	IC50 [1] [µM]	inhibition at 1 µM [1] [%]	inhibition at 100 µM [1] [%]
O=C(Nc1ccc(-n2nc(C(F)(F)F)cc2C(F)(F)F)nc1)c1ccccc1Cl [Example 260, N-[2-[3,5-bis(trifluoromethyl)-1H-pyrazol-1-yl]-5-pyridinyl]-2-chlorobenzamide]	156 to 159	96	0.369		
Cn1cc(C(=O)Nc2ccc(-n3nc(C(F)(F)F)cc3C(F)(F)F)cc2)cn1 [Example 265, N-[4-[3,5-bis(trifluoromethyl)-1H-pyrazol-1-yl]phenyl]-1-methyl-1H-pyrazole-4-carboxamide]	211 to 212	90	3.81		
COc1c(C(=O)Nc2ccc(-n3nc(C(F)(F)F)cc3C(F)(F)F)cc2)csc1Cl [Example 267, N-[4-[3,5-bis(trifluoromethyl)-1H-pyrazol-1-yl]phenyl]-5-chloro-4-methoxy-3-thiophenecarboxamide]	119 to 120			38	
O=C(Nc1ccc(-n2nc(C(F)(F)F)cc2C(F)(F)F)cc1)c1cnc(Cl)c(Cl)c1 [Example 268, N-[4-[3,5-bis(trifluoromethyl)-1H-pyrazol-1-yl]phenyl]-5,6-dichloro-3-pyridinecarboxamide]	175 to 177	100	0.347		
O=C(Nc1ccc(-n2nc(C(F)(F)F)cc2C(F)(F)F)cc1F)c1ccc(F)cc1F [Example 272, N-[4-[3,5-bis(trifluoromethyl)-1H-pyrazol-1-yl]-2-fluorophenyl]-2,4-difluorobenzamide]	66 to 67			10	
Cc1noc(C)c1C(=O)Nc1ccc(-n2nc(C(F)(F)F)cc2C(F)(F)F)c(Cl)c1 [Example 277, N-[4-[3,5-bis(trifluoromethyl)-1H-pyrazol-1-yl]-3-chlorophenyl]-3,5-dimethyl-4-isoxazolecarboxamide]	64 to 65		1.06		99
Cc1noc(C)c1C(=O)Nc1ccc(-n2nc(C(F)(F)F)cc2C(F)(F)F)cc1C(F)(F)F [Example 278, N-[4-[3,5-bis(trifluoromethyl)-1H-pyrazol-1-yl]-2-(trifluoromethyl)phenyl]-3,5-dimethyl-4-isoxazolecarboxamide]	145 to 146			4	
COc1cc(-n2nc(C(F)(F)F)cc2C(F)(F)F)ccc1NC(=O)c1snnc1C [Example 280, N-[4-[3,5-bis(trifluoromethyl)-1H-pyrazol-1-yl]-2-methoxyphenyl]-4-methyl-1,2,3-thiadiazole-5-carboxamide]	119 to 121	16			
Cc1nnsc1C(=O)Nc1ccc(-n2nc(C(F)(F)F)cc2O)cc1 [Example 288, N-[4-[5-hydroxy-3-(trifluoromethyl)-1H-pyrazol-1-yl]phenyl]-4-methyl-1,2,3-thiadiazole-5-carboxamide]	177 to 179			16	
Cc1nc(C)n(-c2ccc(NC(=O)c3snnc3C)cc2)n1 [Example 289, N-[4-(3,5-dimethyl-1H-1,2,4-triazol-1-yl)phenyl]-4-methyl-1,2,3-thiadiazole-5-carboxamide]	144 to 145			22	
COc1cncc(Cl)c1C(=O)Nc1ccc(-n2nc(C(F)(F)F)cc2C(F)(F)F)cc1 [Example 291, N-(4-(3,5-bis(trifluoromethyl)-1H-pyrazol-1-yl)phenyl)-3-chloro-5-methoxyisonicotinamide]	187 to 188		0.411		
C=C(C)C(=O)Nc1ccc(-n2nc(C(F)(F)F)cc2C(F)(F)F)cc1 [Example 295, N-(4-(3,5-bis(trifluoromethyl)-1H-pyrazol-1-yl)phenyl)-2-methylacrylamide]	160 to 162		0.232		
O=C(Nc1ccc(-n2nc(C(F)(F)F)cc2C(F)(F)F)cc1)c1ccc(Cl)cc1F [Example 296, N-(4-(3,5-bis(trifluoromethyl)-1H-pyrazol-1-yl)phenyl)-4-chloro-2-fluorobenzamide]	156 to 158		0.044		
Cc1nnsc1C(=O)Nc1ccc(-n2nc(C(F)(F)F)cc2C#N)cc1 [Example 302, N-(4-(5-cyano-3-(trifluoromethyl)-1H-pyrazol-1-yl)phenyl)-4-methyl-1,2,3-thiadiazole-5-carboxamide]	193 to 195		0.358		
N#Cc1cc(C(F)(F)F)nn1-c1ccc(NC(=O)c2ccncc2F)cc1 [Example 304, N-(4-(5-cyano-3-(trifluoromethyl)-1H-pyrazol-1-yl)phenyl)-3-fluoroisonicotinamide]	161 to 162		0.266		
N#Cc1cc(C(F)(F)F)nn1-c1ccc(NC(=O)c2cccnc2F)cc1 [Example 306, N-(4-(5-cyano-3-(trifluoromethyl)-1H-pyrazol-1-yl)phenyl)-2-fluoronicotinamide]	150 to 151		0.265		
O=C(Nc1ccc(-n2nc(C(F)(F)F)cc2-c2cccnc2)cc1)c1ccccc1F [Example 310, 2-fluoro-N-(4-(5-(3-pyridinyl)-3-(trifluoromethyl)-1H-pyrazol-1-yl)phenyl)benzamide]	138 to 140		0.335		
O=C(Nc1ccc(-n2nc(C(F)(F)F)cc2-c2cccs2)cc1)c1ccncc1F [Example 311, 3-fluoro-N-(4-(5-(2-thienyl)-3-(trifluoromethyl)-1H-pyrazol-1-yl)phenyl)isonicotinamide]	153 to 155		0.323		

Further lines, with some results ahead:

melting point [°C]	SMILES	inhibition at 10 µM [1] [%]	IC50 [1] [µM]	inhibition at 1 µM [1] [%]	inhibition at 100 µM [1] [%]
206 to 208	N#Cc1cccc(C(=O)Nc2ccc(-n3nc(C(F)(F)F)cc3C(F)(F)F)nc2)c1 [Example 261, N-[2-[3,5-bis(trifluoromethyl)-1H-pyrazol-1-yl]-5-pyridinyl]-3-cyanobenzamide]			37	
113 to 116	O=C(Nc1ccc(-n2nc(C(F)(F)F)cc2C(F)(F)F)nc1)c1cc(F)c(F)cc1Cl [Example 262, N-[2-[3,5-bis(trifluoromethyl)-1H-pyrazol-1-yl]-5-pyridinyl]-2-chloro-4,5-difluorobenzamide]	100	0.419		
215 to 216	O=C(Nc1ccc(-n2nc(C(F)(F)F)cc2C(F)(F)F)cc1)c1cc(Cl)nc(Cl)c1 [Example 269, N-[4-[3,5-bis(trifluoromethyl)-1H-pyrazol-1-yl]phenyl]-2,6-dichloro-4-pyridinecarboxamide]	99	0.392		
65 to 67	O=C(Nc1ccc(-n2nc(C(F)(F)F)cc2C(F)(F)F)c(C(F)(F)F)c1)c1ccc(Cl)cc1 [Example 271, N-[4-[3,5-bis(trifluoromethyl)-1H-pyrazol-1-yl]-3-(trifluoromethyl)phenyl]-4-chlorobenzamide]			14	
114 to 115	O=C(Nc1ccc(-n2nc(C(F)(F)F)cc2C(F)(F)F)cc1-n1nc(C(F)(F)F)cc1C(F)(F)F)c1ccc(F)cc1F [Example 273, N-[2,4-bis[3,5-bis(trifluoromethyl)-1H-pyrazol-1-yl]phenyl]-2,4-difluorobenzamide]			12	
61 to 63	Cc1noc(C)c1C(=O)Nc1ccc(-n2nc(C(F)(F)F)cc2C(F)(F)F)c(C(F)(F)F)c1 [Example 275, N-[4-[3,5-bis(trifluoromethyl)-1H-pyrazol-1-yl]-3-(trifluoromethyl)phenyl]-3,5-dimethyl-4-isoxazolecarboxamide]			8	
134 to 136	Cc1nnsc1C(=O)Nc1ccc(-n2nc(C(F)(F)F)cc2C(F)(F)F)c(C(F)(F)F)c1 [Example 276, N-[4-[3,5-bis(trifluoromethyl)-1H-pyrazol-1-yl]-3-(trifluoromethyl)phenyl]-4-methyl-1,2,3-thiadiazole-5-carboxamide]			16	
196 to 197	Cc1cc(-n2nc(C(F)(F)F)cc2C(F)(F)F)ccc1NC(=O)c1snnc1C [Example 279, N-[4-[3,5-bis(trifluoromethyl)-1H-pyrazol-1-yl]-2-methylphenyl]-4-methyl-1,2,3-thiadiazole-5-carboxamide]			6	
51 to 53	Cc1nnsc1C(=O)Nc1ccc(-n2nc(C(F)(F)F)cc2C)cc1 [Example 282, 4-methyl-N-[4-[5-methyl-3-(trifluoromethyl)-1H-pyrazol-1-yl]phenyl]-1,2,3-thiadiazole-5-carboxamide]		0.248		100
180 to 181	Cc1noc(C)c1C(=O)Nc1ccc(-n2nc(C(F)(F)F)cc2C)cc1 [Example 283, 3,5-Dimethyl-N-[4-[5-methyl-3-(trifluoromethyl)-1H-pyrazol-1-yl]phenyl]-4-isoxazolecarboxamide]		1.04		99
177 to 178	Cc1noc(C)c1C(=O)Nc1ccc(-n2ccc(C(F)(F)F)n2)cc1 [Example 287, 3,5-dimethyl-N-[4-[3-(trifluoromethyl)-1H-pyrazol-1-yl)phenyl]-4-isoxazolecarboxamide]			24	
145 to 146	N#Cc1cc(C(F)(F)F)nn1-c1ccc(NC(=O)c2ccncc2)cc1 [Example 303, N-(4-(5-cyano-3-(trifluoromethyl)-1H-pyrazol-1-yl)phenyl)isonicotinamide]		0.487		

From patent US20010044445A1, “AZOLE INHIBITORS OF CYTOKINE PRODUCTION” (priority 1999, published 2001)
